The subject of this data set is Moxifloxacin-induced QTc prolongation. Put plainly: Cardiac response testing: protection against Moxifloxacin-induced QTc prolongation (ECG telemetry). The data set is classed as in vivo, adult male Hartley guinea pigs. Conditions: for inhibition in vivo at 2 mg/kg: Cavia porcellus, po; for Maximal prolongation: QTc; for Onset of protection / Time of maximal protection / Duration of complete protection: single oral 2 mg/kg test compound with oral moxifloxacin; for Duration of complete protection: 6 h recording. How it is done:
Efficacy evaluation of the compounds of the present invention involved ECG measurements of adult male Hartley guinea pigs wherein PR, QRS, QT, QTc, JT, RR were recorded. In typical experiments, subcutaneous Kaha TR50B bio potential telemeters were surgically implanted in adult male Hartley guinea pigs weighing 300 to 350 g at enrollment. One lead was sutured to the apex of the heart, while another was sutured to the side of the aorta. The animals were allowed to recover from surgery for 5 days prior to being returned to the testing colony. Following recovery, animals were subjected to two rounds of evaluation as follows:
The animals were then returned to their housing to washout the drug over 5 to 7 days.
ECGs were acquired continuously for 6 hours. The animals were then returned to their housing to washout the drug over 5 to 7 days.
ECG analysis over 5 minutes pre-dose and 6 hours post dose consisted in was automated based on pattern recognition algorithms. The analyzed data were binned into 5-minute segments. Intervals such as PR, QRS, QT, QTc, JT and RR were analyzed automatically using AD Instruments LabChart Pro v8. The accuracy of the measurements was verified manually using digital cursors by randomly selecting 3 to 5 segments at any given time postdose. […] The frequency of arrhythmia was quantified and expressed as “% of ECG time spent in abnormal sinus rhythm over entire duration of the recording”.

Where [1] appears, read: 1 h, read-out: Protection at 1 h post dose.
Where [2] appears, read: 2 h, read-out: Protection at 2 h post dose.
[3] abbreviates: 4 h, read-out: Protection at 4 h post dose.
Setting [4] is: 6 h, read-out: Protection at 6 h post dose.
The mark [5] stands for this setting: test compound 2 mg/kg oral given with moxifloxacin.

Read-outs that look alike come from different tables or passages of the source.

Regarding `CCCCCCCCCCCCCC(=O)OC[C@H](COP(=O)([O][MgH])OCC(COC(=O)OCC)OC(=O)OCC)OC(=O)CCCCCCCCCCCCC` (stereo partly drawn) [Compound 11, calcium-2,3-bis((ethoxycarbonyl)oxy)propyl ((R)-2,3-bis(tetradecanoyloxy)propyl) Phosphate], the Onset of protection is given as 1 h, the “Time of maximal protection” value turned out to be 2 h and the “Duration of complete protection” value amounted to 6 h. In addition, where the note is “1 h, read-out: Protection at 1 h post dose, percent of Moxifloxacin effect, single oral 2 mg/kg test compound concomitantly with oral moxifloxacin 20 mg/kg, 1 h post dose”, the inhibition in vivo at 2 mg/kg was 83%. The inhibition in vivo at 2 mg/kg (2 h, read-out: Protection at 2 h post dose, percent of Moxifloxacin effect, single oral 2 mg/kg test compound concomitantly with oral moxifloxacin 20 mg/kg, 2 h post dose) worked out at 94%. Also, the inhibition in vivo at 2 mg/kg (4 h, read-out: Protection at 4 h post dose, percent of Moxifloxacin effect, single oral 2 mg/kg test compound concomitantly with oral moxifloxacin 20 mg/kg, 4 h post dose) amounted to 91%. Under “6 h, read-out: Protection at 6 h post dose, percent of Moxifloxacin effect, single oral 2 mg/kg test compound concomitantly with oral moxifloxacin 20 mg/kg, 6 h post dose”, the inhibition in vivo at 2 mg/kg came to 116%. The same molecule yielded a Maximal prolongation (test compound 2 mg/kg oral given with moxifloxacin, 2 mg/kg) of 8 ms.
For `COc1c(N2C[C@@H]3CCCN[C@@H]3C2)c(F)cc2c(=O)c(C(=O)O)cn(C3CC3)c12` [Moxifloxacin, reference compound], where the note is “Moxifloxacin alone, column head 40 mg/kg”, the Maximal prolongation was found to be 29 ms.
As for `CCCCCCCCCCCCCC(=O)OC[C@H](COP(=O)([O][MgH])OCC(COC(=O)OCC)OC(=O)OCC)OC(=O)CCCCCCCCCCCCC` (stereo partly drawn) [Compound 10, magnesium-2,3-bis((ethoxycarbonyl)oxy)propyl((R)-2,3-bis(tetradecanoyloxy)propyl) Phosphate], the Onset of protection is 1 h, the “Time of maximal protection” value stood at 2 h and the “Duration of complete protection” value is on record as 6 h. The “Protection at 1 h post dose” value (percent of Moxifloxacin effect, single oral 2 mg/kg test compound concomitantly with oral moxifloxacin 20 mg/kg, 1 h post dose) was 83%.
As to `CCCCCCCCCCCCCC(=O)OC[C@H](COP(=O)([O-])OCC(COC(=O)CCC)OC(=O)CCC)OC(=O)CCCCCCCCCCCCC.[Na+]` (stereo partly drawn) [Compound 7, Sodium 2,3-bis(butyryloxy)propyl ((R)-2,3-bis(tetradecanoyloxy)propyl) Phosphate], the Onset of protection amounted to 1 h, the “Time of maximal protection” value worked out at 2 h and the “Duration of complete protection” value stood at 6 h. Moreover, the inhibition in vivo at 2 mg/kg under setting [1] turned out to be 83%. Besides, the inhibition in vivo at 2 mg/kg under setting [2] was 100%. The inhibition in vivo at 2 mg/kg under setting [3] turned out to be 119%. The inhibition in vivo at 2 mg/kg under setting [4] is 147%. Under setting [5], this molecule displayed a Maximal prolongation of 4 ms.
For `CCCCCCCCCCCCCC(=O)OC[C@H](COP(=O)([O-])OCC(COC(=O)C(C)C)OC(=O)C(C)C)OC(=O)CCCCCCCCCCCCC.[Na+]` (stereo partly drawn) [Compound 9, Sodium 2,3-bis(isobutyryloxy)propyl ((R)-2,3-bis(tetradecanoyloxy)propyl) Phosphate], the Onset of protection is reported as 1 h, the “Time of maximal protection” value was determined as 2 h and the “Duration of complete protection” value stood at 6 h. Further, the inhibition in vivo at 2 mg/kg under setting [1] was 91%. Further, the inhibition in vivo at 2 mg/kg under setting [2] is 94%. The inhibition in vivo at 2 mg/kg under setting [3] was found to be 100%. In addition, under setting [4], the inhibition in vivo at 2 mg/kg was determined as 116%. Also, under setting [5], the Maximal prolongation worked out at 3 ms.
On to `CCCCCCCCCCCCCC(=O)OC[C@H](COP(=O)([O-])OCC(COC(C)=O)OC(C)=O)OC(=O)CCCCCCCCCCCCC.[Na+]` (stereo partly drawn) [Compound 1, Sodium (R)-2,3-bis(tetradecanoyloxy)propyl (2,3-diacetoxypropyl) Phosphate], for which the Onset of protection stood at 1 h, the “Time of maximal protection” value came to 2 h and the “Duration of complete protection” value is 6 h. Under setting [1], the inhibition in vivo at 2 mg/kg was determined as 118%. For the same molecule, under setting [2], the inhibition in vivo at 2 mg/kg amounted to 122%. Also, under setting [3], the inhibition in vivo at 2 mg/kg came to 100%. Also, under setting [4], the inhibition in vivo at 2 mg/kg was determined as 116%. Further, the Maximal prolongation under setting [5] turned out to be 0 ms.
For the molecule `CCCCCCCCCCCCCC(=O)OC[C@H](COP(=O)([O-])OCC(COC(=O)CC(C)C)OC(=O)CC(C)C)OC(=O)CCCCCCCCCCCCC.[Na+]` (stereo partly drawn) [Compound 8, Sodium 2,3-bis((3-methylbutanoyl)oxy)propyl ((R)-2,3-bis(tetradecanoyloxy)propyl) Phosphate], the Onset of protection was determined as 1 h, the “Time of maximal protection” value is on record as 2 h and the “Duration of complete protection” value amounted to 6 h. For the same molecule, the inhibition in vivo at 2 mg/kg under setting [1] is 74%. Moreover, the inhibition in vivo at 2 mg/kg under setting [2] was 97%. Further, the inhibition in vivo at 2 mg/kg under setting [3] turned out to be 100%. The inhibition in vivo at 2 mg/kg under setting [4] was determined as 132%. The Maximal prolongation under setting [5] is given as 2 ms.
`CCCCCCCCCCCCCCCCCC1OCC(COP(=O)([O-])OC[C@@H](COC(=O)CCCCCCCCCCCCC)OC(=O)CCCCCCCCCCCCC)O1.[Na+]` (stereo partly drawn) [Compound 4, Sodium (R)-2,3-bis (tetradecanoyloxy)propyl ((2-heptadecyl-1,3-dioxolan-4-yl)methyl) Phosphate]: the Onset of protection is listed as 1 h, the “Time of maximal protection” value amounted to 2 h and the “Duration of complete protection” value stood at 4 h. Besides, the inhibition in vivo at 2 mg/kg under setting [1] stood at 95%. Besides, the inhibition in vivo at 2 mg/kg under setting [2] was 88%. The inhibition in vivo at 2 mg/kg under setting [3] was determined as 22%. Under setting [4], the inhibition in vivo at 2 mg/kg is 90%. This molecule registered a Maximal prolongation under setting [5] of 8 ms.
Take `CCCCCCCCCCCCCC(=O)OC[C@H](COP(=O)([O-])OCC1COC(CCCCC)O1)OC(=O)CCCCCCCCCCCCC.[Na+]` (stereo partly drawn) [Compound 6, Sodium (R)-2,3-bis(tetradecanoyloxy)propyl ((2-pentyl-1,3-dioxolan-4-yl)methyl) Phosphate]: the Onset of protection was 1 h, the “Time of maximal protection” value amounted to 2 h and the “Duration of complete protection” value amounted to 6 h. For the same molecule, the inhibition in vivo at 2 mg/kg under setting [1] came out at 74%. Further, the inhibition in vivo at 2 mg/kg under setting [2] was 110%. The inhibition in vivo at 2 mg/kg under setting [3] was 115%. Also, the inhibition in vivo at 2 mg/kg under setting [4] is 138%. This molecule also returned a Maximal prolongation under setting [5] of 3 ms.
Consider `CCCCCCCCCCCCCCCC1OCC(COP(=O)([O-])OC[C@@H](COC(=O)CCCCCCCCCCCCC)OC(=O)CCCCCCCCCCCCC)O1.[Na+]` (stereo partly drawn) [Compound 5, Sodium (R)-2,3-bis(tetradecanoyloxy)propyl ((2-pentadecyl-1,3-dioxolan-4-yl)methyl) Phosphate], for which the Onset of protection is reported as 2 h, the “Time of maximal protection” value turned out to be 2 h and the “Duration of complete protection” value is 6 h. The inhibition in vivo at 2 mg/kg under setting [1] stood at 35%. For the same molecule, the inhibition in vivo at 2 mg/kg under setting [2] worked out at 113%. Further, the inhibition in vivo at 2 mg/kg under setting [3] was 126%. Further, the inhibition in vivo at 2 mg/kg under setting [4] was found to be 176%. Besides, the Maximal prolongation under setting [5] is reported as 0 ms.
Consider `CCCCCCCCCCCCCC(=O)OC[C@H](COP(=O)([O-])OCC(COC(=O)OCC)OC(=O)OCC)OC(=O)CCCCCCCCCCCCC.[Na+]` (stereo partly drawn) [Compound 2, Sodium 2,3-bis((ethoxycarbonyl)oxy)propyl ((R)-2,3-bis (tetra decanoyloxy)propyl) Phosphate], for which the Onset of protection was 1 h, the “Time of maximal protection” value is on record as 2 h and the “Duration of complete protection” value came to 4 h. Also, the inhibition in vivo at 2 mg/kg under setting [1] was found to be 95%. Further, the inhibition in vivo at 2 mg/kg under setting [2] is 88%. Moreover, the inhibition in vivo at 2 mg/kg under setting [3] was determined as 22%. The inhibition in vivo at 2 mg/kg under setting [4] stood at 90%. Under setting [5], this molecule returned a Maximal prolongation of 4 ms.

(Values after US11643424B2, “Cardiopathy-reducing phosphodiester lipids” (Signpath Pharma, Inc., priority 2018, dated 2023).)
